# Paper PMC3585822, “The ancestral activation promiscuity of ADP-glucose pyrophosphorylases from oxygenic photosynthetic organisms” (BMC Evolutionary Biology, 2013)
# pEC50: −log10 of the molar value. Read-outs that look alike come from different tables or passages of the source.
# Tests used:
# Assay in all cases: ADP-[…]Glc synthesis from […]Glc1P, modified Hill fit
# OtaS = system: T1, OtaS; type: biochemical, Ostreococcus tauri; settings: allosteric activator; 1 mM ATP, 1 mM Glc1P, 7 mM MgCl2, pH 8.0, 37 °C; read-out: A0.5
# T1 construct: recombinant small subunit homotetramer from E. coli AC70R1-504, purified; plasmid pMAB5 or pMAB6
# OtaS/OtaL [1] = system: T2, OtaS/OtaL; type: biochemical, Ostreococcus tauri; settings: allosteric activator; 1 mM ATP, 1 mM Glc1P, 7 mM MgCl2, pH 8.0, 37 °C; read-out: A0.5
# T2 construct: recombinant S2L2 heterotetramer co-expressed in E. coli AC70R1-504, purified
# [2] = target: T3, ADP-Glc PPase from Anabaena (Nostoc sp. PCC 7120 = FACHB-418, UniProt P30521); type: biochemical; settings: read-out: A0.5
# T3 construct: gene glgC; recombinant homotetramer from E. coli AC70R1-504, purified
# T3 sequence (P30521 1-429): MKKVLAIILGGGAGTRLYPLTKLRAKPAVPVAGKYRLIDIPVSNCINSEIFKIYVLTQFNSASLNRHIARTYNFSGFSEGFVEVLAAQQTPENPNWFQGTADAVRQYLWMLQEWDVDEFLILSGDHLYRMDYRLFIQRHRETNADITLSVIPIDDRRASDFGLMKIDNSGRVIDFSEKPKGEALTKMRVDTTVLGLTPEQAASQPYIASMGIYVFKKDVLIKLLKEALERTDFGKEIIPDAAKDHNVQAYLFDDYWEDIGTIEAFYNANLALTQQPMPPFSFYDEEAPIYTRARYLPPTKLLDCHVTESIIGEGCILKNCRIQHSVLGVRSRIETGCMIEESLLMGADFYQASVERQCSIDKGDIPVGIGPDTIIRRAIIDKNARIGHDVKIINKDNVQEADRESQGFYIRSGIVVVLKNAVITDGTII
# OtaS/OtaL [3] = system: T2, OtaS/OtaL; type: biochemical, Ostreococcus tauri; settings: allosteric activator; 1 mM ATP, 1 mM Glc1P, 7 mM MgCl2, pH 8.0, 37 °C; non-catalytic OtaL with wild-type OtaS; read-out: A0.5
# OtaS/OtaL [4] = system: T2, OtaS/OtaL; type: biochemical, Ostreococcus tauri; settings: allosteric activator; 1 mM ATP, 1 mM Glc1P, 7 mM MgCl2, pH 8.0, 37 °C; non-catalytic OtaS with wild-type OtaL; read-out: A0.5
# [5] = allosteric activator, 1 mM ATP, 1 mM Glc1P, 7 mM MgCl2, pH 8.0, 37 °C
pEC50 (OtaS),pEC50 (OtaS/OtaL [1]),"pEC50 [2, 5]",pEC50 (OtaS/OtaL [3]),pEC50 (OtaS/OtaL [4]),pEC50 [2],Compound
2.00,1.12,3.40,,,,O=P(O)(O)OC[C@H]1OC(O)[C@H](O)[C@@H](O)[C@@H]1O (stereo partly shown) [Glc6P]
2.72,1.82,2.80,,,,O=P(O)(O)OC[C@H]1OC(O)(CO)[C@@H](O)[C@@H]1O (stereo partly shown) [Fru6P]
2.92,3.27,,4.17,5.52,4.12,O=C(O)[C@H](O)COP(=O)(O)O [3-PGA]
2.96,2.96,3.52,2.82,2.09,,O=P(O)(O)OC[C@H]1OC(O)(COP(=O)(O)O)[C@@H](O)[C@@H]1O (stereo partly shown) [FBP]
